The record followed here is ChEMBL document CHEMBL1201862, “PubChem BioAssay data set” (2004).

Some test systems named below: TK-10; SK-MEL-5; M14; RXF 393; U-251; A498; HCC 2998; OVCAR-8; EKVX; K562; A549; OVCAR-3; NCI/ADR-RES; PC-3; UACC-257; UO-31; HCT-15; HOP-62; SR; OVCAR-4.
Assay in all cases: NCI tumour cell line growth inhibition, 48 h

Molecules are shown by their SMILES.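 Step 1: Grow cells in 96-well plates. Step 2: Expose to compound for 48 hours at 5 concentrations. Step 3: Interpolate endpoints linearly; if unreached, use highest concentration. Here, GI50 denotes the concentration required for 50% inhibition of growth.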 Active and inactive are the calls of the source. No stated cut-off is given here; in the data, active = GI50 up to about 1.1 µM and inactive = higher.

Consider `CC1C2(C)OC(=N)C(C#N)(C(C)O2)C1(C#N)C#N` (stereo not given), for which the GI50 with TK-10 was 36.8 µM (inactive); in the assay with SK-MEL-5 it was 13.1 µM (inactive); in the assay on M14 it was 18.3 µM (inactive); with RXF 393, 18.2 µM (inactive); with U-251, 21.4 µM (inactive); in the assay on A498 it was 87.7 µM (inactive). The GI50 was 20.4 µM (inactive) with HCC 2998; 31 µM (inactive) in the assay with OVCAR-8; 30.8 µM (inactive) with EKVX; 34.9 µM (inactive) in the assay with K562; 79.1 µM (inactive) in the assay on A549; 24.5 µM (inactive) with OVCAR-3. Also, the GI50 in the assay with NCI/ADR-RES was 77.1 µM (inactive); with PC-3, 31.8 µM (inactive); in the assay on UACC-257, 20.2 µM (inactive); in the assay with UO-31, 42.9 µM (inactive); in the assay with HCT-15, 15.5 µM.

As for `Cn1c(=O)[nH]c2[nH]c3ccccc3c2c1=O`, the GI50 in the assay on HOP-62, in the assay with TK-10, in the assay on SK-MEL-5, in the assay on M14, with RXF 393 and with U-251 was > 100 µM (inactive) each time. The GI50 in the assay on A498, in the assay on HCC 2998, in the assay with OVCAR-8, in the assay with EKVX, with K562 and in the assay on A549 was > 100 µM (inactive) in each case. The GI50 is > 100 µM (inactive) in the assay with OVCAR-3; > 100 µM (inactive) in the assay on NCI/ADR-RES; > 100 µM (inactive) in the assay on UACC-257; > 100 µM (inactive) in the assay with UO-31; > 100 µM (inactive) in the assay on SR; > 100 µM in the assay on HCT-15.

For `CN(C)CCCNC(=O)c1cc(NC(=O)CCCn2c3ccccc3c3ccccc32)cn1C`, the GI50 with HOP-62 was > 100 µM (inactive); in the assay with TK-10 it was 22.5 µM (inactive); with SK-MEL-5, 16.7 µM (inactive); with M14 it was 28.1 µM (inactive); in the assay with RXF 393, 32.8 µM (inactive); in the assay with U-251, 37.3 µM (inactive). Besides, the GI50 in the assay on A498 is 17.7 µM (inactive); in the assay with OVCAR-8 it was 48.3 µM (inactive); with EKVX, 15.6 µM (inactive); in the assay on K562 it was 31.6 µM (inactive); in the assay on A549, 20.7 µM (inactive); with OVCAR-3, 11.5 µM (inactive). The GI50 with NCI/ADR-RES was > 100 µM (inactive); in the assay on PC-3, 20.7 µM (inactive); in the assay with UO-31, 25.5 µM (inactive); in the assay with OVCAR-4 it was 43.1 µM (inactive); with HCT-15, 45.7 µM.

Regarding `NNC(=O)c1ccccc1NC(=O)/C(=C/c1ccccc1)NC(=O)c1ccccc1`, the GI50 was 49.1 µM (inactive) in the assay on HOP-62; > 100 µM (inactive) in the assay on TK-10; > 100 µM (inactive) in the assay with SK-MEL-5; 81.1 µM (inactive) with M14; > 100 µM (inactive) in the assay with RXF 393; 58.6 µM (inactive) in the assay with U-251. The GI50 with A498, in the assay on HCC 2998, in the assay with OVCAR-8, in the assay with EKVX, with K562 and in the assay on A549 was > 100 µM (inactive) in each case. The GI50 is > 100 µM (inactive) with OVCAR-3; 56.8 µM (inactive) in the assay with NCI/ADR-RES; > 100 µM (inactive) in the assay with PC-3; 71.6 µM (inactive) in the assay on UACC-257; 65.3 µM (inactive) with UO-31; > 100 µM (inactive) in the assay on OVCAR-4. In addition, the GI50 with HCT-15 is 46.7 µM.

`CCOc1ccc2ccccc2c1NC1=NCCO1`: the GI50 was 28.2 µM (inactive) in the assay on HOP-62; > 100 µM (inactive) with TK-10; 44.9 µM (inactive) with SK-MEL-5; 37.2 µM (inactive) in the assay on M14; 98.6 µM (inactive) in the assay on RXF 393; 45.3 µM (inactive) with U-251. Besides, the GI50 in the assay on A498 was 35.1 µM (inactive); with HCC 2998, 38.5 µM (inactive); in the assay with OVCAR-8 it was 74.6 µM (inactive); in the assay on EKVX, 60.8 µM (inactive); with K562, 19.8 µM (inactive); in the assay with A549 it was 61 µM (inactive). The GI50 in the assay with NCI/ADR-RES is 70.3 µM (inactive); in the assay with UACC-257, 34.6 µM (inactive); with UO-31, 21 µM (inactive); in the assay with SR, 31.5 µM (inactive); with OVCAR-4, 26.8 µM (inactive); with HCT-15, > 100 µM.

With `CO[C@]12C[C@@H](CNC(=O)c3cc(Br)c[nH]3)O[C@H]1NC(=O)N2`, the GI50 with HOP-62, with TK-10, with SK-MEL-5, in the assay on M14, in the assay with U-251 and in the assay with A498 was > 100 µM (inactive) each time. Also, the GI50 in the assay with HCC 2998, in the assay on OVCAR-8, with EKVX, with K562, with A549 and in the assay with OVCAR-3 was > 100 µM (inactive) in each case. Moreover, the GI50 is > 100 µM (inactive) in the assay on NCI/ADR-RES; > 100 µM (inactive) in the assay on PC-3; > 100 µM (inactive) in the assay on UACC-257; > 100 µM (inactive) in the assay with UO-31; > 100 µM (inactive) in the assay with OVCAR-4; > 100 µM in the assay on HCT-15.

As for `CCN(CC)c1c(C(C)(C)C)c(=O)n2ccsc2c1OC(C)=O`, the GI50 in the assay with HOP-62 was 13.3 µM (inactive); in the assay on TK-10, 19.8 µM (inactive); in the assay on SK-MEL-5, 18.1 µM (inactive); in the assay with M14, 17.3 µM (inactive); in the assay on RXF 393, 16.9 µM (inactive); with U-251, 17 µM (inactive). The GI50 with A498 was 19.2 µM (inactive); in the assay on HCC 2998, 17.4 µM (inactive); in the assay on OVCAR-8 it was 15 µM (inactive); with EKVX, 15.1 µM (inactive); with K562 it was 17.6 µM (inactive); with A549, 15 µM (inactive). The GI50 in the assay with OVCAR-3 was 17.1 µM (inactive); with NCI/ADR-RES, 13 µM (inactive); with PC-3 it was 11.2 µM (inactive); in the assay on UACC-257, 16.5 µM (inactive); in the assay with UO-31, 17.9 µM (inactive); in the assay on OVCAR-4 it was 15.2 µM (inactive). Moreover, the GI50 with HCT-15 was 16.5 µM.

`Cc1ccc(Nc2nc(N)nc3c2ncn3C2OC(CO)C(O)C2O)cc1` (stereo not given): the GI50 in the assay with HOP-62, with TK-10, with SK-MEL-5, with M14, in the assay on RXF 393 and in the assay with U-251 was > 100 µM (inactive) throughout. Moreover, the GI50 in the assay with A498, with HCC 2998, in the assay on OVCAR-8, in the assay on EKVX, with K562 and with A549 was > 100 µM (inactive) in each case. Also, the GI50 in the assay with OVCAR-3, in the assay with NCI/ADR-RES, in the assay with PC-3, in the assay with UACC-257, in the assay on UO-31 and in the assay on OVCAR-4 was > 100 µM (inactive) in each case. The GI50 with HCT-15 was > 100 µM.

Take `COC(=O)[C@H](Cc1c[nH]c2ccccc12)NC(=O)OCC1OC(n2cc(C)c(=O)[nH]c2=O)CC1N=[N+]=[N-]` (stereo not given in full): the GI50 with HOP-62 was > 100 µM (inactive); with TK-10, > 100 µM (inactive); in the assay on SK-MEL-5 it was 31.8 µM (inactive); in the assay with M14, > 100 µM (inactive); in the assay with RXF 393 it was > 100 µM (inactive); in the assay on U-251 it was > 100 µM (inactive). The GI50 with HCC 2998, with OVCAR-8, in the assay on EKVX, in the assay on K562, with A549 and with OVCAR-3 was > 100 µM (inactive) in each case. The GI50 was > 100 µM (inactive) with NCI/ADR-RES; > 100 µM (inactive) in the assay on PC-3; 62.5 µM (inactive) with UACC-257; > 100 µM (inactive) with UO-31; > 100 µM (inactive) with OVCAR-4; > 100 µM in the assay on HCT-15.

With `C1=C2C3=[N+](CCCC3)CC2Cc2sccc21` (stereo not given), the GI50 is 81.7 µM (inactive) in the assay with HOP-62; > 100 µM (inactive) in the assay on TK-10; 57.7 µM (inactive) with SK-MEL-5; > 100 µM (inactive) in the assay with M14; > 100 µM (inactive) with RXF 393; 29.4 µM (inactive) in the assay with U-251. The GI50 was 47.6 µM (inactive) in the assay on A498; > 100 µM (inactive) with OVCAR-8; 42.7 µM (inactive) in the assay with EKVX; > 100 µM (inactive) in the assay on K562; 30 µM (inactive) in the assay with A549; 64.4 µM (inactive) in the assay on OVCAR-3. The GI50 in the assay on NCI/ADR-RES was > 100 µM (inactive); with PC-3, 45.6 µM (inactive); in the assay on UACC-257, 33.3 µM (inactive); in the assay with UO-31, > 100 µM (inactive); with OVCAR-4, 42.5 µM (inactive); in the assay with HCT-15, > 100 µM.

Consider `COc1cccc(-c2ccc3c4c2O[C@H]2c5[nH]c6ccccc6c5C[C@@]5(O)[C@@H](C3)N(CC3CC3)CC[C@]425)c1`, for which the GI50 is 1.74 µM (inactive) with HOP-62; 1.72 µM (inactive) with TK-10; 1.94 µM (inactive) in the assay on SK-MEL-5; 1.81 µM (inactive) in the assay on M14; 1.66 µM (inactive) in the assay with RXF 393; 1.77 µM (inactive) with U-251. Also, the GI50 with A498 was 2.19 µM (inactive); in the assay on HCC 2998 it was 1.53 µM (inactive); in the assay on OVCAR-8, 1.65 µM (inactive); in the assay with EKVX, 3.86 µM (inactive); in the assay on K562, 1.9 µM (inactive); with A549, 1.77 µM (inactive). The GI50 with OVCAR-3 is 1.9 µM (inactive); with NCI/ADR-RES it was 2.07 µM (inactive); in the assay with UACC-257, 1.74 µM (inactive); with UO-31, 1.72 µM (inactive); in the assay with SR it was 1.76 µM (inactive); with OVCAR-4 it was 1.71 µM (inactive). The same molecule gave a GI50 in the assay with HCT-15 of 1.84 µM.
